Experimental data taken from patent US20210278408A1, “METHODS OF TREATMENT OF CANCER WITH SUBSTITUTED PYRROLE AND PYRAZOLE COMPOUNDS AND DIAGNOSIS OF CANCERS SUSCEPTIBLE TO TREATMENT WITH SUBSTITUTED PYRROLE AND PYRAZOLE COMPOUNDS” (Bantam Pharmaceutical, LLC, priority 2018, published 2021).

Tested on: 406 cancer cell lines, 73 blood tumor cell lines and 333 solid tumor cell lines
Assay: OmniScreen drug efficacy on cancer cell lines, fitted area under curve (AUC) of dose-response
Assay type: cell-based
Set-up: AUCs: unit not given beside the values
Procedure: Predictive biomarkers for genes indicating responsiveness to a therapeutic compound can be determined using a cell-based screening technique, such as that offered under the name OmniScreen™ (Crown Biosciences).
In one experimental study, predictive biomarkers were determined for Compound A197 efficacy on 406 cancer cell lines, 73 blood tumor cell lines and 333 solid tumor cell lines. Genomic data for the cell lines was downloaded from the Cancer Cell Line Encyclopedia Project (CCLE) website. Driver mutations were predicted on the Cancer Genome Interpreter Database; only driver mutations were used in the mutation related analysis.
Dose-response curves were fitted by the 4-parameter model:
in which top and bottom are the two asymptotes of the sigmoidal curve, EC50 is the relative IC50, and concentration x is in log−10 scale. To accommodate experimental errors, Bottom was allowed to go down to −20%, and Top was allowed to go up to 120%. The fitting error of a model is measured by
σECS0 is the standard error of EC50. In general, such fitting error should be less than 40% for a model to be considered acceptable. The fitted area under curve (AUC) is calculated by
where a=log(3, 10) and b=log(30000,10).

## Cc1nn(-c2nc(-c3ccc(C(F)(F)F)cc3)c(SC(C)C)s2)c(C(=O)O)c1-c1cccc(F)c1 [Compound A197, 4-(3-fluorophenyl)-1-(5-(isopropylthio)-4-(4-(trifluoromethyl)phenyl)thiazol-2-yl)-3-methyl-1H-pyrazole-5-carboxylic acid]
KHOS/NP, Bone
  AUCs: 3.37
KP4, Pancreas
  AUCs: 2.84
  IC50: 0.52 µM
KU812, Blood
  AUCs: 3.91
KYSE-410, Esophagus
  AUCs: 3.51
L-82, Blood
  AUCs: 2.94
LN-229, Brain&Nerves
  AUCs: 3.59
LNCaP clone FGC, Prostate
  AUCs: 2.48
LS123, Colorectum
  AUCs: 4
LS1034, Colorectum
  AUCs: 3.29
MCF7, Breast
  AUCs: 3.76
MDA-MB-415, Breast
  AUCs: 3.49
MDA-MB-436, Breast
  AUCs: 3.33
MDA-MB-453, Breast
  AUCs: 3.26
ME-180, Uterus
  AUCs: 2.65
MES-SA, Uterus
  AUCs: 2.67
MES-SA/DX5, Uterus
  AUCs: 2.17
MFE-296, Uterus
  AUCs: 3.24
MIA PaCa-2, Pancreas
  AUCs: 3.15
MKN1, Stomach/Gastric
  AUCs: 3.21
MKN45, Stomach/Gastric
  AUCs: 3.54
MKN74, Stomach/Gastric
  AUCs: 2.89
MM.1S, Blood
  AUCs: 3.46
MS751, Uterus/Cervix
  AUCs: 3.52
NCI-H69, Lung
  AUCs: 3.75
NCI-H146, Lung
  AUCs: 3.86
NCI-H187, Lung
  AUCs: 2.89
NCI-H209, Lung
  AUCs: 3.47
NCI-H226, Lung
  AUCs: 2.98
NCI-H292, Lung
  AUCs: 3.17
NCI-H441, Lung
  AUCs: 3.85
NCI-H446, Lung
  AUCs: 3.83
NCI-H460, Lung
  AUCs: 3.13
NCI-H522, Lung
  AUCs: 3.12
NCI-H526, Lung
  AUCs: 3.6
NCI-H596, Lung
  AUCs: 3.81
NCI-H661, Lung
  AUCs: 3.43
NCI-H727, Lung
  AUCs: 3.53
NCI-H747, Large intestine/Colorectum
  AUCs: 3.19
NCI-H929, Blood
  AUCs: 3.32
NCI-H1048, Lung
  AUCs: 3.35
NCI-H1563, Lung
  AUCs: 3.71
NCI-H1581, Lung
  AUCs: 3.1
NCI-H1648, Lung
  AUCs: 3.56
NCI-H1650, Lung
  AUCs: 4.13
NCI-H1666, Lung
  AUCs: 3.51
NCI-H1688, Lung
  AUCs: 3.57
NCI-H1781, Lung
  AUCs: 3.34
NCI-H1838, Lung
  AUCs: 3.62
NCI-H1915, Lung
  AUCs: 3.33
NCI-H1975, Lung
  AUCs: 3.6
NCI-H2009, Lung
  AUCs: 3.22
NCI-H2052, Lung
  AUCs: 3.92
NCI-H2087, Lung
  AUCs: 3.19
NCI-H2452, Lung
  AUCs: 3.72
NCI-N87, Stomach/Gastric
  AUCs: 3.09
NUGC-3, Stomach/Gastric
  AUCs: 3.64
NUGC-4, Stomach/Gastric
  AUCs: 3.11
OCI-AML3, Blood/Leukemia
  AUCs: 3.62
OCUM1, OCUM-1, Stomach/Gastric
  IC50: 68.3 µM
OCUM-1, Stomach/Gastric
  AUCs: 3.57
OCUM-2D, Stomach/Gastric
  AUCs: 3.12
  IC50: 1.14 µM
OCUM-2M, Stomach/Gastric
  AUCs: 2.88
  IC50: 0.848 µM
OE19, Esophagus/gastric cardia
  AUCs: 3.44
OSC19, OSC-19, Tongue
  IC50: 34.5 µM
OSC-19, Tongue
  AUCs: 3.85
OVCAR-3, Ovary
  AUCs: 3.29
OVCAR-8, Ovary
  AUCs: 3.05
PANC-1, Pancreas
  AUCs: 3.13
PC-3, Prostate
  AUCs: 3.82
PL45, PL45, Pancreas
  IC50: 0.993 µM
PL45, Pancreas
  AUCs: 3.37
RL95-2, Uterus
  AUCs: 2.63
RPMI-2650, Nose
  AUCs: 3.04
SCC-4, Tongue
  AUCs: 3.69
SCC-9, Tongue
  AUCs: 3.31
SCC-15, Tongue
  AUCs: 3.56
SCC-25, Tongue
  AUCs: 3.29
SCH, Stomach/Gastric
  AUCs: 3.48
SF268, Brain&Nerves
  AUCs: 3.24
SF-126, Brain&Nerves
  AUCs: 3.39
SK-HEP-1, Liver
  AUCs: 3.05
SK-MEL-5, Skin
  AUCs: 4.12
SK-MEL-28, Skin
  AUCs: 4.18
SK-OV-3, Ovary
  AUCs: 3.53
SK-UT-1, Uterus
  AUCs: 3.67
SNU-1, Stomach/Gastric
  AUCs: 3.25
SNU-5, Stomach/Gastric
  AUCs: 3.11
SNU-81, Colorectum
  AUCs: 3.54
SNU-216, SNU-216, Stomach/Gastric
  IC50: 124 µM
SNU-216, Stomach/Gastric
  AUCs: 3.7
SNU-354, Liver
  AUCs: 3.39
SNU-423, Liver
  AUCs: 3.2
SNU-484, SNU-484, Stomach/Gastric
  IC50: 74.8 µM
SNU-484, Stomach/Gastric
  AUCs: 3.64
SNU-601, SNU-601, Stomach/Gastric
  IC50: 0.331 µM
SNU-601, Stomach/Gastric
  AUCs: 2.89
SNU-620, Stomach/Gastric
  AUCs: 3.75
SNU-638, Stomach/Gastric
  AUCs: 3.32
SNU-668, Stomach/Gastric
  AUCs: 3.48
SNU-719, Stomach/Gastric
  AUCs: 3.58
  IC50: 1320 µM
SNU-C5, Large intestine/Colorectum
  AUCs: 3.5
SW48, Colorectum
  AUCs: 3.74
SW480, Colorectum
  AUCs: 3.62
SW579, SW579, Thyroid
  IC50: 50.5 µM
SW579, Thyroid
  AUCs: 3.73
SW626, Ovary
  AUCs: 3.89
SW684, Soft tissue
  AUCs: 3.77
SW756, Ovary
  AUCs: 3.75
SW948, Colorectum
  AUCs: 3.37
SW982, Soft tissue
  AUCs: 3.99
SW1116, Colorectum
  AUCs: 3.82
SW1271, Lung
  AUCs: 3.9
SW1271, SW1271, Lung
  IC50: 498 µM
SW1990, Pancreas
  AUCs: 3.12
T47D, Breast
  AUCs: 3.33
T84, Colorectum
  AUCs: 3.57
TE-1, Esophagus
  AUCs: 3.23
TF-1, Blood
  AUCs: 3.24
TJ905, Brain&Nerves
  AUCs: 3.68
TT, Thyroid
  AUCs: 3.19
  IC50: 2.17 µM
U266B1, Blood
  AUCs: 3.41
U-2 OS, Bone
  AUCs: 3.44
UACC-812, Breast
  AUCs: 3.52
UO.31, Kidney
  AUCs: 3.58
WM-266-4, Skin
  AUCs: 3.87
Y-79, Eye
  AUCs: 3.72
YCC-1, Stomach/Gastric
  AUCs: 3.54
YCC-2, Stomach/Gastric
  AUCs: 3.66
YCC-6, Stomach/Gastric
  AUCs: 2.95
  IC50: 6.32 µM
YCC-10, Stomach/Gastric
  AUCs: 3.64
  IC50: 412 µM
YCC-11, Stomach/Gastric
  AUCs: 3.34
ZR-75-30, Breast
  AUCs: 3.44
